The values below come from patent US12428465B2, “Therapeutic peptides and methods for treating type 2 diabetes” (OP-T LLC, priority 2018, dated 2025).

Data set [1] deals with ApoE-/- mice. Nature of the data set: LDL cholesterol in ApoE-/- mice. The settings on record: 1 mg/kg IV once a week for 4 weeks. It is filed as in vivo, mouse. Here is the method: In this study, six ApoE−/− mice received a normal chow diet from 0 to 20 weeks of age. At 20 weeks of age, three mice were randomly assigned to receive dose of 1 mg/kg of KGYY6 (6-mer-SEQ ID NO:29) by IV tail injection, once a week for a period of 4 weeks. Control mice received vehicle only.

In data set [2] the test system is ApoE-/- mice. Nature of the data set: Atherosclerotic changes in high fat diet ApoE-/- mice (Sudan IV en-face, Paigen method, trichrome). The class given is in vivo, mouse. As for the experimental part:
ApoE−/− mice were fed a high fat diet for 16 weeks. Mice were randomly assigned to receive dose of 1 mg/kg of KGYY6 (6-mer-SEQ ID NO:29) by IV tail injection, once a week for a period of 4 weeks. Control mice received vehicle only. Atherosclerosis was investigated by several methods. […] FIG. 28A is an image of KGYY6 treated aortic en-face Sudan IV staining and FIG. 28B is an image of control (untreated) aortic en-face Sudan staining.
Further, measurement of plaque area and morphology was performed using the Paigen method. This method obtains sequential 5 μm aortic cross sections from the aortic root beginning at the valve leaflets into the ascending aorta. At 50 μm intervals, slides are stained after which the area of atherosclerotic lesion is measured. Individual plaque area measurements are plotted against the micrometer intervals and a curve is established, with the area under the curve (AUC) giving the total volume of plaque.

Data set [3] deals with ApoE-/- mice. Nature of the data set: Glucose tolerance testing and serum insulin in high fat diet ApoE-/- mice. The class given is in vivo, mouse. The source says: One example of a disease that is particularly amenable to treatment using a peptide of the present developments may be type 2 diabetes. In type 2 diabetes, glucose tolerance is reduced, insulin sensitivity is decreased, and plasma insulin levels are increased. Consequently, control of inflammatory cells and cell signaling via CD40-CD154 interaction may be able to be used to control, modulate, reduce and/or reverse type 2 diabetes symptoms that are characterized as by glucose intolerance, insulin resistance, and increased plasma insulin levels. Several murine models of T2D and/or atherosclerosis have been developed. For initial studies, ApoE−/− mice were selected due to their ability to develop type 2 diabetes from a high fat diet. Glucose tolerance and insulin testing were performed on all of the mice. The mice were administered the 6-mer peptide (SEQ ID NO:29) at a rate of 1 mg/kg weekly via I.V, injection and monitored. […] Thus, one embodiment of the present developments is a method to prevent type 2 diabetes in an individual at risk for developing type 2 diabetes, the method comprising administering to the individual a peptide to selectively bind to a CD40 expressing cell. In such an embodiment, the peptide may be selected from SEQ ID NOS: 3-9 and 24-30.
ApoE−/− mice were fed a 60% high fat diet (research diet) for 1 week. A select population of mice were then injected with 6-mer peptide at a dose of 1 mg/kg and others were untreated and tracked as controls. Glucose tolerance testing (GTT) was performed by fasting 6 hours, followed by intraperitoneal injection of 1 g/kg body weight glucose in water. Both blood glucose and blood serum insulin were measured at 0, 15 minutes, 30 minutes, 60 minutes, and 2 hours.

The next data set relates to GLUT4. Nature of the data set: Western analysis of GLUT4 in adipose and muscle tissue of treated mice. It is filed as in vivo, mouse. The settings on record: treated versus untreated mice. The source says:
GLUT4 is responsible for glucose uptake in response to insulin and known to have reduced expression in type 2 diabetes.

In a further data set the test system is Th40 cells. Nature of the data set: Cytokine production of splenic lymphocytes (Th40 cells) treated in vitro, flow cytometry. It is filed as cell-based, mouse. The settings on record: splenic lymphocytes of ApoE-/- and C57BL/6 mice, 24 hours in vitro, varying concentrations. As for the experimental part: Spleens from ApoE mice and C57BL/6 mice were processed for lymphocytes. ApoE−/− and C57BL/6 mice were fed a 60% high fat diet (research diet) for 1 week. Splenic lymphocytes were treated with 6-mer in vitro for 24 hours. Cells were placed in media overnight in the presence of varying concentrations of 6-mer peptides. The following morning. Brefeldin A was administered for 4 hours. All cells were stained for CD3, CD4, CD40 (Th40 cells) and measured by use of flow cytometry for their production of IL2, INFγ, and IL17a.
On the technique in general: A flow cytometer gives signals particle by particle.

In data set [4] the test system is NOD mice. The data set can be described thus: Development of diabetes in NOD mice treated with CD154 peptides. The class given is in vivo, mouse. The settings on record: 25 ug (1 mg/kg) tail vein weekly from 6 weeks of age. Here is the method:
(§1) Peptides were designed based on the amino acid sequence of mouse CD154 protein (SEQ ID NO:1) in the SwissPro database. […] Weekly after the initial injection, another 25 ug of peptide (or 100 ul of saline in the case of the Control mice) was injected into the tail vein. At 10 weeks of age, mice were monitored for diabetes, as indicated by a blood glucose level greater than 250 mg/dL for three consecutive days. During this time, blood was also taken from the tail vein, or by sub-mandibular venal puncture, and the level of CD4+ and CD8+ cells determined by flow cytometry using antibodies for CD4 protein and CD8 protein.

Data set [5] has as its system NOD mice. Nature of the data set: CD4/CD8 ratio in blood of treated NOD mice by flow cytometry. It is filed as in vivo, mouse. The settings on record: 25 ug (1 mg/kg) tail vein weekly. As for the experimental part:
as §1

Data set [6] deals with NOD mice. Nature of the data set: Reversal of hyperglycemia in newly diabetic NOD mice. It is filed as in vivo, mouse. Here is the method:
Six mice from Example 1 that were not treated were allowed to subsequently develop diabetes. These mice were injected intravenously with 100 ug of the 15-mer peptide. These mice were then given weekly injections of the 15-mer peptide into their tail veins, and their blood glucose levels monitored twice-weekly. The 15-mer peptide was administered for a total of ten weeks, after which the treatment was stopped.
(§2) At the onset of diabetes, six NOD mice were injected with […] of the 15-mer peptide, resulting in the reversal of hyperglycemia in 80% of the recipients. Six weeks after reversal of hyperglycemia, mice were sacrificed, and the pancreas removed for analysis. The pancreas was fixed, sectioned and then stained using an aldehyde/fuschsin stain that allows detection of insulin granules. Granulation of the tissue was scored as follows: 4=completely granulated; 3=75% of islet granulated; 2=50% of islet granulated, and peri-insulitis; 1=25% of islet granulated; 0=no insulin granules detected.

The next data set has as its system CD40+ T-cells. Nature of the data set: Binding of FITC-labeled 15-mer peptide to Th40 cells, flow cytometry. More on the design: species or system mouse. The settings on record: lymphocytes of 9 week old NOD mice. Here is the method:
Total lymphocytes were isolated from 9 week old NOD mice. The lymphocytes were incubated with anti-CD4, anti-CD8, anti-CD40 and an FITC-labeled 15-mer peptide, and then analyzed by flow cytometry. Cells were gated for CD4 (both CD4hi and CD4lo populations were included) and CD40 versus the 15-mer peptide.

The subject of another data set is B cells. The data set can be described thus: Binding of FITC-labeled 15-mer peptide to B cells, flow cytometry. The settings on record: spleen B cells of NOD mice, 90% CD40 positive. Further details: species or system mouse. As for the experimental part:
B cells were isolated from the spleens of NOD mice. Sorted MHC-II+ cells were purified from total lymphocytes. Cells were stained with FITC-labeled 15 mer peptide, anti-CD40, and B cell markers CD19 and CD21. MHC-II+ cells were gated for CD19+ and CD21+ and then 15-mer peptide versus CD40 antibody was measured.

Another data set has as its system blood cells. Nature of the data set: Binding of biotin-conjugated 15-mer peptide to whole blood cells, HRP-avidin absorbance at 405 nm. Further details: species or system human. The settings on record: 1 ml whole blood. As for the experimental part: 1 ml of whole blood was obtained from each individual and incubated with biotin-conjugated, 15-mer peptide. The cells were then exposed to horseradish peroxidase (HRP)-avidin, washed and the absorbance at 405 nm determined using a spectrophotometer.

Data set [7] concerns NOD mice. Nature of the data set: Insulin granulation of the pancreas in NOD mice, aldehyde/fuschsin stain. It is filed as in vivo, mouse. The settings on record: six weeks after reversal of hyperglycemia; versus irrelevant peptide. Here is the method:
as §2

A further data set deals with ApoE deficient mice. Nature of the data set: Atherosclerosis in ApoE deficient mice, lesser curvature of the aortic arch. The settings on record: 1 mg/kg IV three times a week from 9 weeks of age, normal chow. It is filed as in vivo, mouse. As for the experimental part:
ApoE deficient mice on a normal chow diet were selected to receive a dose of 1 mg/kg of the 15-mer peptide (SEQ ID NO: 7) by IV tail injection, three times a week over a period of […], beginning at 9 weeks of age and also utilized a control. At 25 weeks, the animals were euthanized, weighed, and then had blood, spleen, and pancreas removed for analysis. The subjects were then perfused through cardiac puncture with 4% paraformaldehyde. Aortic arches were dissected, dehydrated in sucrose gradient and then flash frozen.
FIG. 17 provides an example of the lesser curvature of the aortic arch, defined proximally from the aortic outflow (AO). Of the segments seen in the trichrome stain, an intimal distance of […] was measured distally. The aortic-arch wall area subtended by this 2.5 mm stretch of the intima was calculated for each section of all mice, with maximal area of the inner-aortic-arch wall of each mouse used to compute averages per group. The luminal surface (L), aortic arch (AO), and innominate artery (I) are labelled in this FIG. 17.
Plaque was subdivided based on morphology of early lesions (observable as fatty streaks containing macrophage derived foam cells with varying degrees of lipid accumulation) compared with more advanced fibroatheromas (containing varying degrees of lipid or necrotic core and fibrous caps). […]

The test system of data set [8] is ApoE-/- mice. The data set can be described thus: Existing atherosclerotic disease in ApoE-/- mice, plaque cap and core measurements. The settings on record: 1 mg/kg IV once a week for 4 weeks from 20 weeks of age. The class given is in vivo, mouse. As for the experimental part:
In this study, six ApoE−/− mice received a normal chow diet from 0 to 20 weeks of age. At 20 weeks of age, three mice were randomly assigned to receive dose of 1 mg/kg of KGYY15 (15-mer-SEQ ID NO:7) by IV tail injection, once a week for a period of 4 weeks. Control mice received vehicle only. After 4 weeks of treatment, animals were euthanized then perfused through cardiac puncture with 4% paraformaldehyde. Aortic arches were dissected in surcrose gradient and flash frozen. Approximately fifty, 8 um longitudinal sections were obtained per mouse. Slides were treated with trichrome stain and analyzed using cellSens software for measurements. Total plaque was measured including 2.5 mm lesser curvature and innominate artery.

A short description of data set [9]: Clot study of whole human blood in the presence of peptide. The settings on record: dosing levels similar to murine studies. Here is the method:
Whole human blood was administered the peptide in accordance with similar dosing levels to those used for murine studies.

The next data set concerns human B cells. The settings on record: cited from earlier work.
Setting [10] is: high fat diet 16 weeks, 1 mg/kg IV once a week for 4 weeks.
The mark [11] stands for this setting: trichrome staining, Image Pro Plus analysis.

As for “AKKGYY [KGYY6, 6-mer peptide from CD154]”, in the data set on ApoE-/- mice [1], the “reduction in LDL cholesterol values versus untreated mice” value was above 50%. Moreover, in the data set on ApoE-/- mice [2] (setting [10]), the “lesion areas, en-face Sudan IV stain” value was “significant reduction” and the “plaque volume (area under the curve, Paigen method)” value is given as “reduction”. For the same compound, in the data set with ApoE-/- mice [2] (setting [11]), the “plaque composition: collagen” value is listed as “increased” and the “plaque composition: smooth muscle content” value is given as “reduced”. Besides, in the data set with ApoE-/- mice [3] (1 mg/kg), the “insulin sensitivity compared to controls” value is given as “significantly improved” and the “plasma insulin levels compared to controls” value was “lowered”. The “insulin resistance compared to controls” value with ApoE-/- mice [3] (1 mg/kg weekly I.V.) was “improve”. Besides, in the data set on ApoE-/- mice [3] (1 mg/kg, GTT 1 g/kg glucose i.p. after 6 hours fasting), the “glucose tolerance compared to controls” value is reported as “significantly increased”. In the data set on GLUT4, the “expression of GLUT4 in muscle tissue” value is given as “increased expression” and the “expression of GLUT4 in white adipose tissue” value is listed as “increase in expression”. Further, the “inflammatory cytokine production of IL2, INFγ, and IL17a” value with Th40 cells is recorded as “affects”.

“VLQWAKKGYYTMKSN (VLQWAKKGYYTMKSK) [15-mer peptide, 15-mer peptide derived from the mouse CD154 protein]”: the “development of diabetes (blood glucose greater than 250 mg/dL for three consecutive days)” value in the data set on NOD mice [4] was “prevented the onset of diabetes”. For the same compound, the “compromise of the immune system as determined by the CD4/CD8 ratio” value in the data set with NOD mice [5] is reported as “did not result in compromise of the immune system”. Moreover, the “reversal of hyperglycemia in already diabetic mice” value with NOD mice [6] (100 ug IV then weekly injections for ten weeks) is “can reverse hyperglycemia”. The “recipients with reversal of hyperglycemia” value in the data set with NOD mice [6] (six NOD mice injected with 100 ug/ml at the onset of diabetes) came to 80%. In addition, the “return of hyperglycemia after cessation of the treatment” value with NOD mice [6] (treatment stopped after ten weeks) is at most 5 weeks. Further, the “CD40+ T-cells that bind the peptide” value in the data set on CD40+ T-cells was 90%. For the same compound, the “B cells that bound the peptide” value in the data set on B cells is reported as 8%. The “peptide binding activity of blood cells, type-I diabetes patients versus non-diabetic controls” value in the data set on blood cells is recorded as “higher”. In addition, the “insulin granules in the pancreas” value in the data set on NOD mice [7] is listed as “preserved insulin granules in the majority of the mice”. Also, in the data set on ApoE deficient mice, the “total area of the 2.5 mm segment of the aortic-arch wall” value is “substantially reduced”; the “total number of plaque (early lesions and advanced plaque)” value is listed as “significantly decreased”. Besides, in the data set with ApoE-/- mice [8], the “average cap width (cap size)” value is reported as “greater”; the “average core width (core size/plaque size)” value is on record as “decreased”; the “cap to core ratio of advanced plaques” value is given as “reduced”; the “number of individual early plaques and advanced plaques” value was “reduced”. Further, in data set [9], the “clotting of whole human blood” value is reported as “does not modify or change the clotting”.

As to `Cc1ccc(C(=O)Nc2ccc(S(=O)(=O)O)c3cc(S(=O)(=O)O)cc(S(=O)(=O)O)c23)cc1NC(=O)c1cccc(NC(=O)Nc2cccc(C(=O)Nc3cc(C(=O)Nc4ccc(S(=O)(=O)O)c5cc(S(=O)(=O)O)cc(S(=O)(=O)O)c45)ccc3C)c2)c1` [suramin], in the data set with human B cells, the “CD154-induced proliferation of human B cells” value is given as “prevented”.

Regarding “VLQWAKKGYYTMK [13-mer peptides, 13-mer peptide derived from the CD154 protein]”, the “development of diabetes (blood glucose greater than 250 mg/dL for three consecutive days)” value in the data set on NOD mice [4] is “significant effects on the development of diabetes”.
